We go through 10 cell lines from the supplement of paper PMC10307832.

What all share (assay): relative viability (nuclei count vs DMSO), 5 days (fraction); higher = more cells survive
Compound in the assay “VE-821 + Vorinostat”: CS(=O)(=O)c1ccc(-c2cnc(N)c(C(=O)Nc3ccccc3)n2)cc1 [VE-821] + O=C(CCCCCCC(=O)Nc1ccccc1)NO [Vorinostat] (partner 1 µM)
In a few lines:
(§1)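 Five library-drug doses in √10 steps were combined with a fixed anchor-drug dose, or a single drug was given alone, by pin tool to lung cancer cell lines in 1536-well plates the day after seeding. Nuclei were stained and counted after 5 days. Relative viability is the nuclei count in treated wells over that in vehicle wells, taken as the median of duplicate plates.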

Compound in the assay “VE-821 + AZD7762”: CS(=O)(=O)c1ccc(-c2cnc(N)c(C(=O)Nc3ccccc3)n2)cc1 [VE-821] + NC(=O)Nc1cc(-c2cccc(F)c2)sc1C(=O)N[C@H]1CCCNC1 [AZD7762] (partner 0.2 µM)
Summed up:
as §1

Compound in the assay “Vismodegib + Alpelisib”: CS(=O)(=O)c1ccc(C(=O)Nc2ccc(Cl)c(-c3ccccn3)c2)c(Cl)c1 [Vismodegib] + Cc1nc(NC(=O)N2CCC[C@H]2C(N)=O)sc1-c1ccnc(C(C)(C)C(F)(F)F)c1 [Alpelisib] (partner 2 µM)
Summed up: as §1

Compound in the assay “Vismodegib + Bortezomib”: CS(=O)(=O)c1ccc(C(=O)Nc2ccc(Cl)c(-c3ccccn3)c2)c(Cl)c1 [Vismodegib] + CC(C)C[C@H](NC(=O)[C@H](Cc1ccccc1)NC(=O)c1cnccn1)B(O)O [Bortezomib] (partner 0.002 µM)
Summed up:
as §1

With NCI-H1944, the relative viability worked out at 0.581 with VE-821 + Vorinostat (first compound 0.08 µM); 0.498 with VE-821 + Vorinostat (first compound 0.253 µM); 0.498 with VE-821 + Vorinostat (first compound 0.8 µM); 0.492 with VE-821 + Vorinostat (first compound 2.53 µM); 0.243 with VE-821 + Vorinostat (first compound 8 µM); 0.527 with VE-821 + AZD7762 (first compound 0.08 µM). For the same cell line, the relative viability turned out to be 0.402 with VE-821 + AZD7762 (first compound 0.253 µM); 0.296 with VE-821 + AZD7762 (first compound 0.8 µM); 0.277 with VE-821 + AZD7762 (first compound 2.53 µM); 0.121 with VE-821 + AZD7762 (first compound 8 µM); 0.768 with Vismodegib + Alpelisib (first compound 0.08 µM); 0.862 with Vismodegib + Alpelisib (first compound 0.253 µM). Further, the values for the relative viability with Vismodegib + Alpelisib (first compound 0.8 µM), with Vismodegib + Alpelisib (first compound 2.53 µM) and in the assay with Vismodegib + Alpelisib (first compound 8 µM) were 0.744, 0.809 and 0.777, respectively.
On to NCI-H2009, for which the relative viability turned out to be 0.947 with Vismodegib + Bortezomib (first compound 0.08 µM); 0.986 in the assay with Vismodegib + Bortezomib (first compound 0.253 µM); 0.976 with Vismodegib + Bortezomib (first compound 0.8 µM); 0.967 with Vismodegib + Bortezomib (first compound 2.53 µM); 1.04 with Vismodegib + Bortezomib (first compound 8 µM); 0.771 with VE-821 + Vorinostat (first compound 0.08 µM). The relative viability with VE-821 + Vorinostat (first compound 0.253 µM) was 0.668; with VE-821 + Vorinostat (first compound 0.8 µM), 0.699; with VE-821 + Vorinostat (first compound 2.53 µM) it was 0.76; with VE-821 + Vorinostat (first compound 8 µM), 0.683; with Vismodegib + Alpelisib (first compound 0.08 µM), 1.12; in the assay with Vismodegib + Alpelisib (first compound 0.253 µM), 1.14. In addition, the relative viability with Vismodegib + Alpelisib (first compound 0.8 µM) was 1.19; with Vismodegib + Alpelisib (first compound 2.53 µM), 1.11; with Vismodegib + Alpelisib (first compound 8 µM) it was 1.22.
With NCI-H2023, the relative viability with Vismodegib + Bortezomib (first compound 0.08 µM) stood at 0.906; with Vismodegib + Bortezomib (first compound 0.253 µM), 0.889; with Vismodegib + Bortezomib (first compound 0.8 µM), 0.915; with Vismodegib + Bortezomib (first compound 2.53 µM), 1.02; with Vismodegib + Bortezomib (first compound 8 µM), 0.943; with VE-821 + Vorinostat (first compound 0.08 µM) it was 0.783. In addition, the relative viability with VE-821 + Vorinostat (first compound 0.253 µM) is 0.467; with VE-821 + Vorinostat (first compound 0.8 µM), 0.441; with VE-821 + Vorinostat (first compound 2.53 µM), 0.243; with VE-821 + Vorinostat (first compound 8 µM), 0.121; with Vismodegib + Alpelisib (first compound 0.08 µM), 0.584; in the assay with Vismodegib + Alpelisib (first compound 0.253 µM), 0.534. Further, the relative viability with Vismodegib + Alpelisib (first compound 0.8 µM) was determined as 0.626; in the assay with Vismodegib + Alpelisib (first compound 2.53 µM), 0.546; with Vismodegib + Alpelisib (first compound 8 µM), 0.495.
For the cell line NCI-H2170, the relative viability with VE-821 + Vorinostat (first compound 0.08 µM) came to 0.923; with VE-821 + Vorinostat (first compound 0.253 µM) it was 0.687; with VE-821 + Vorinostat (first compound 0.8 µM), 0.872; with VE-821 + Vorinostat (first compound 2.53 µM), 0.805; in the assay with VE-821 + Vorinostat (first compound 8 µM), 0.635; with VE-821 + AZD7762 (first compound 0.08 µM), 0.842. In addition, the relative viability with VE-821 + AZD7762 (first compound 0.253 µM) was 0.766; with VE-821 + AZD7762 (first compound 0.8 µM), 0.771; with VE-821 + AZD7762 (first compound 2.53 µM) it was 0.394; with VE-821 + AZD7762 (first compound 8 µM), 0.199; with Vismodegib + Alpelisib (first compound 0.08 µM), 0.836; with Vismodegib + Alpelisib (first compound 0.253 µM), 0.814. Besides, the relative viability with Vismodegib + Alpelisib (first compound 0.8 µM) amounted to 0.872; in the assay with Vismodegib + Alpelisib (first compound 2.53 µM), 0.836; in the assay with Vismodegib + Alpelisib (first compound 8 µM), 0.794.
For NCI-H2228, the relative viability with Vismodegib + Bortezomib (first compound 0.08 µM) came out at 1.08; in the assay with Vismodegib + Bortezomib (first compound 0.253 µM), 0.954; with Vismodegib + Bortezomib (first compound 0.8 µM) it was 0.958; with Vismodegib + Bortezomib (first compound 2.53 µM), 0.835; with Vismodegib + Bortezomib (first compound 8 µM), 0.965; with VE-821 + Vorinostat (first compound 0.08 µM), 0.758. Moreover, the relative viability with VE-821 + Vorinostat (first compound 0.253 µM) amounted to 0.535; with VE-821 + Vorinostat (first compound 0.8 µM) it was 0.294; with VE-821 + Vorinostat (first compound 2.53 µM), 0.59; with VE-821 + Vorinostat (first compound 8 µM), 0.347; with Vismodegib + Alpelisib (first compound 0.08 µM), 0.643; in the assay with Vismodegib + Alpelisib (first compound 0.253 µM) it was 0.952. The relative viability turned out to be 0.606 with Vismodegib + Alpelisib (first compound 0.8 µM), 0.622 with Vismodegib + Alpelisib (first compound 2.53 µM) and 0.758 in the assay with Vismodegib + Alpelisib (first compound 8 µM).
On to NCI-H2342, for which the relative viability in the assay with VE-821 + Vorinostat (first compound 0.08 µM) stood at 0.702; with VE-821 + Vorinostat (first compound 0.253 µM) it was 0.673; with VE-821 + Vorinostat (first compound 0.8 µM), 0.723; with VE-821 + Vorinostat (first compound 2.53 µM) it was 0.774; with VE-821 + Vorinostat (first compound 8 µM), 0.841; with VE-821 + AZD7762 (first compound 0.08 µM), 0.494. Further, the relative viability came out at 0.642 in the assay with VE-821 + AZD7762 (first compound 0.253 µM), 0.426 with VE-821 + AZD7762 (first compound 0.8 µM), 0.388 in the assay with VE-821 + AZD7762 (first compound 2.53 µM) and 0.384 with VE-821 + AZD7762 (first compound 8 µM).
As for SK-LU-1, the relative viability is 1.17 with Vismodegib + Bortezomib (first compound 0.08 µM); 0.979 with Vismodegib + Bortezomib (first compound 0.8 µM); 1.1 with Vismodegib + Bortezomib (first compound 2.53 µM); 1.16 with Vismodegib + Bortezomib (first compound 8 µM); 0.918 with VE-821 + Vorinostat (first compound 0.08 µM); 0.687 in the assay with VE-821 + Vorinostat (first compound 0.253 µM). Moreover, the relative viability was 0.783 with VE-821 + Vorinostat (first compound 0.8 µM); 0.496 in the assay with VE-821 + Vorinostat (first compound 2.53 µM); 0.305 with VE-821 + Vorinostat (first compound 8 µM); 1.07 with Vismodegib + Alpelisib (first compound 0.08 µM); 0.987 with Vismodegib + Alpelisib (first compound 0.253 µM); 1.07 in the assay with Vismodegib + Alpelisib (first compound 0.8 µM). Moreover, the figures for the relative viability with Vismodegib + Alpelisib (first compound 2.53 µM) and with Vismodegib + Alpelisib (first compound 8 µM) were 0.894 and 1.06, respectively.
Turning to SK-MES-1, the relative viability in the assay with VE-821 + Vorinostat (first compound 0.08 µM) was 1.18; in the assay with VE-821 + Vorinostat (first compound 0.253 µM) it was 1.02; in the assay with VE-821 + Vorinostat (first compound 0.8 µM), 0.857; with VE-821 + Vorinostat (first compound 2.53 µM), 1.08; in the assay with VE-821 + Vorinostat (first compound 8 µM), 0.358; with Vismodegib + Alpelisib (first compound 0.08 µM), 0.851. Moreover, the relative viability is 0.956 with Vismodegib + Alpelisib (first compound 0.253 µM), 0.802 with Vismodegib + Alpelisib (first compound 0.8 µM), 0.827 with Vismodegib + Alpelisib (first compound 2.53 µM) and 0.837 with Vismodegib + Alpelisib (first compound 8 µM).
Turning to SW 900, the relative viability amounted to 0.503 with VE-821 + Vorinostat (first compound 0.08 µM); 0.449 with VE-821 + Vorinostat (first compound 0.253 µM); 0.453 in the assay with VE-821 + Vorinostat (first compound 0.8 µM); 0.305 in the assay with VE-821 + Vorinostat (first compound 2.53 µM); 0.341 with VE-821 + Vorinostat (first compound 8 µM); 0.673 with VE-821 + AZD7762 (first compound 0.08 µM). The relative viability with VE-821 + AZD7762 (first compound 0.253 µM) came to 0.506; with VE-821 + AZD7762 (first compound 0.8 µM) it was 0.391; in the assay with VE-821 + AZD7762 (first compound 2.53 µM) it was 0.437; in the assay with VE-821 + AZD7762 (first compound 8 µM) it was 0.351.
For the cell line SW 1573, the relative viability stood at 0.958 with Vismodegib + Bortezomib (first compound 0.08 µM); 0.995 in the assay with Vismodegib + Bortezomib (first compound 0.253 µM); 1.16 with Vismodegib + Bortezomib (first compound 0.8 µM); 0.946 in the assay with Vismodegib + Bortezomib (first compound 8 µM); 0.745 with VE-821 + Vorinostat (first compound 0.08 µM); 0.708 with VE-821 + Vorinostat (first compound 0.253 µM). Also, the relative viability with VE-821 + Vorinostat (first compound 0.8 µM) is 0.83; with VE-821 + Vorinostat (first compound 2.53 µM) it was 0.954; in the assay with VE-821 + Vorinostat (first compound 8 µM), 0.532; with Vismodegib + Alpelisib (first compound 0.08 µM) it was 0.7; with Vismodegib + Alpelisib (first compound 0.253 µM), 0.691; with Vismodegib + Alpelisib (first compound 0.8 µM), 0.717. Also, the relative viability with Vismodegib + Alpelisib (first compound 8 µM) stood at 0.754.
